Reference: patent publication US8207314B2, “Tumor antigens for prevention and/or treatment of cancer” (Sanofi Pasteur Limited, priority 2003, dated 2012)

Key:
[1] = tested on: Non-transfected CosA2 cells; experiment: Zeocin selection of non-transfected cells; format: cell-based; conditions: for confluency of surviving cells: three weeks
Procedure: A stable transfection study was initiated to obtain stable clones of BFA4 expressing COS A2 cells. These cells are useful for in vitro stimulation assays pcDNA 3.1 zeo^R/BFA4 (2.5 μg and 20 μg), and pcDNA 3.1 zeo^R/BFA4/MycHis tag (2.5 μg) were used to study expression of BFA4). pGL3 Luciferase (2.5 μg) was used as a control vector to monitor transfection efficiency. The Gene porter reagent was used to facilitate transfection of DNA vectors. After 48 h post-transfection, whole cell extract were prepared by scraping cells in the cell lysis reagent (200 μl) and 1 cycle of freeze-thaw at −20° C./37° C. for first experiment. Transfected cells obtained from the second experiment were trypsinized, frozen stock established and cells were plated in increasing concentrations of Zeocin (0, 250, 500, 750 and 1000 μg/ml). Non-transfected CosA2cells survived at 60-80% confluency for three weeks at 100 μg/ml (Zeocin) and 10% confluency at 250 μg/ml (Zeocin).

[2] = tested on: HLA-A*0201 human T cells; experiment: IFN-γ ELISPOT of human T cells activated with BFA5/NYBR-1 peptide pools and single peptides; format: cell-based; conditions: for BFA5 peptides eliciting high IFN-γ release (>200 spots/100,000 cells): listing = result; for IFN-γ secretion in T cells from both donors: donors AP10 and AP31
Procedure: A library of 100 peptides from the BFA5/NYBR-1 coding sequence that are predicted to be medium to high binders to HLA-A*0201 were designed using Rammensee and Parker algorithms. The library was sub-divided into 10 pools of ten peptides (see Table XI), and each pool was used to activate 10 different T cell cultures after pulsing peptides on to mature autologous dendritic cells.
ELISPOT analysis was performed on human T-cell cultures activated through four rounds of stimulation with each pool of BFA5 peptides. In FIG. 13A, the numbers under the X-axis indicate the number of each peptide pool (1-10). Reactivity against a CMV pp65 peptide, and a Flu matrix peptide were used as positive controls for T-cell activation in the experiments. Each experiment was performed with PBMC and dendritic cells from a single HLA-A*0201^+ donor designated as “AP10”. […] Similar results were obtained for both BFA4 and BFA5/NYBR-1 with a different HLA-A*0201. […] Cultures having a reading of 600 spots have more than this number of spots.
A large number of the BFA5 peptide pools of are reactive as shown by the high levels of IFN-γ production (FIG. 13A). Each reactive peptide pool was then separated into individual peptides and analyzed for immunogenicity using ELISPOT analysis to isolate single reactive BFA5 peptides. […] Similar results were obtained in two independent PBMC culture experiments.

[3] = tested on: BFA4; experiment: Rabbit antibody titers after immunization with BFA4 22-mer peptides; format: in vivo
Text: For monitoring purposes, rabbit anti-BFA4 polyclonal antibodies were generated. Six peptides (22-mers) were designed and synthesized to elicit antibody response to BFA4, as shown below:
Rabbits were immunized with the peptides, serum was isolated, and the following antibody titers were observed: […]

[4] = tested on: peptide-loaded human T2 lymphoma cell targets; experiment: CTL killing of BFA4 peptide-pulsed target cells; format: cell-based; conditions: single BFA4 peptides, listing = result
[5] = tested on: peptide-loaded T2 cells; experiment: 51Cr-release CTL assay with BFA5 peptide-activated human T cells; format: cell-based; conditions: for CTL activity in T cells from both donors: donors AP10 and AP31
Procedure: In addition to ELISPOT analysis, human T cells activated by BFA5 peptides were assayed to determine their ability to function as CTL. The cells were activated using peptide-pulsed dendritic cells followed by CD40 ligand-activated B cells (5 rounds of stimulation). The experiment shown was performed with isolated PBMC from HLA-A*0201^+ donor AP31. Isolated T cells were tested in ^51Cr-release assays using peptide-loaded T2 cells. The % specific lysis at a 10:1, 5:1, and 1:1 T-cell to target ratio is shown for T2 cells pulsed with either pools of BFA5/NYBR-1 peptides or with individual peptides. […] CTL activity (percent specific lysis) induced by the control HIV peptide was generally <10%. Similar results were obtained with another PBMC donor expressing HLA-A*0201 (AP10). […]

[6] = tested on: targets pulsed with corresponding peptide pools; experiment: CTL killing of targets pulsed with BFY3 peptide pools or peptides; format: cell-based, human; conditions: for Peptides eliciting CTL activity (peptide pulsed targets): BFY3 nonamer peptides, listing = result; for recognition of single peptides by CTL: BFY3 peptides, peptide-pulsed targets
Procedure: (§1) In addition to ELISPOT analysis, human T cells activated by BFY3 peptides were assayed for reactivity. Ten pools of peptides consisting often peptides per pool used to generate CTL. These 10 groups of effectors used to kill targets pulsed with corresponding peptide pools. […]

[7] = tested on: Human PBMC from an HLA-A2.1 positive donor; experiment: IFN-γ ELISPOT of human T cells activated with BFY3 peptide pools and deconvolution to single peptides; format: cell-based; conditions: BFY3 nonamer peptides; listing = result
Text: Human PBMC from an HLA-A2.1 positive donor designated AP31 were activated with autologous dendritic cells pulsed with different pools of 9-mer peptides from the BFY3 antigen (see Table I for list). The activated T cells were re-stimulated after 12 days with activated autologous CD40-ligand-activated B cells pulsed with the same respective peptide pools for another 8 to 10 days. This secondary activation was repeated 2 more time for a total of 4 stimulations. The activated T cells were isolated after the 4th stimulation and subjected to ELISPOT analysis for human IFN-γ production against their respective BFY3 peptide pools as shown. The blue bars show reactivity against the BFY3 peptide pools and the red bars are for an HLA-A2.1-binding HIV peptide as a negative control. Standard deviations are indicated. The experiment was repeated 2 times on activated T cells from different rounds of peptide stimulation with the similar results (FIG. 17A).
The BFY3 peptide pools were deconvoluted and studied in IFN-γ ELISPOT assays. Stimulation was performed as described earlier for the other antigens described. After 4 rounds of stimulation, the T cells from each culture were harvested and subjected to ELISPOT analysis for IFN-γ production with each individual peptide in each pool. FIG. 17B illustrates individual peptide reactivity for each specific pool.

[8] = tested on: CosA2 cells transfected with BFY3; experiment: CTL killing of BFY3-transfected cells; format: cell-based; conditions: CTL generated from BFY3 peptide pools
Procedure: as §1

[9] = first-listed rabbit of the pair
[10] = second-listed rabbit of the pair

Cc1c(N)nc([C@H](CC(N)=O)NC[C@H](N)C(N)=O)nc1C(=O)N[C@H](C(=O)N[C@H](C)[C@@H](O)[C@H](C)C(=O)N[C@H](C(=O)NCCC1=N[C@@H](c2nc(C(=O)NCCCCN=C(N)N)cs2)CS1)[C@@H](C)O)[C@@H](O[C@@H]1O[C@@H](CO)[C@@H](O)[C@H](O)[C@@H]1O[C@H]1O[C@H](CO)[C@@H](O)[C@H](OC(N)=O)[C@@H]1O)c1cnc[nH]1 [Zeocin]
confluency of surviving cells ([1]; 100 μg/ml): 60-80% | confluency of surviving cells ([1]; 250 μg/ml): 10% | live cells ([1]; 500-1000 μg/ml, after three weeks): live cells were not observed

ALRICDIEL [CLP 3043]
BFA5 peptides eliciting high IFN-γ release (>200 spots/100,000 cells) ([2]; Donor AP10): ALRIQDIEL

ANGASKEKTKAPPNVKNEGPLNV [CLP2594]
Titer (Bleed 2) [3, 9]: 409600, 409600 | Titer (Final Bleed) [3, 9]: 320000, 320000 | Titer (Bleed 2) [3, 10]: 409600, 409600 | Titer (Final Bleed) [3, 10]: 320000, 320000

ASLGLLTPV [CLP 2482]
Strong CTL Killing (listed as highly immunoreactive peptide) [4]: ASLGLLTPV

ATDGMKVSI [CLP 3054]
BFA5 peptides inducing CTL lysis of pulsed cells ([5]; Donor AP10, listing = result): ATCGMKVSI | BFA5 peptides eliciting high IFN-γ release (>200 spots/100,000 cells) ([2]; Donor AP10): ATCGMKVSI

ELCSVRLTL [CLP 3050]
CTL activity in T cells from both donors [5]: induce | IFN-γ secretion in T cells from both donors [2]: induce

FTTPDVDVL [CLP 2468]
Strong CTL Killing (listed as highly immunoreactive peptide) [4]: FTTPDVDVL

GLHRNNAQV [CLP 2520]
Strong CTL Killing (listed as highly immunoreactive peptide) [4]: GLHRNNAQV

HAIEEVPHV [CLP 3344]
Peptides eliciting CTL activity (peptide pulsed targets) [6]: HAIEEVPHV | recognition of single peptides by CTL [6]: strongly recognized | Peptides eliciting strong IFN-γ ELISPOT activity [7]: HAIEEVPHV | killing of CosA2 cells transfected with BFY3 by CTL [8]: responsible for this cytotoxicity

HLARDFGYV [CLP 3387]
Peptides eliciting CTL activity (peptide pulsed targets) [6]: HLARDFGYV | recognition of single peptides by CTL [6]: strongly recognized | Peptides eliciting strong IFN-γ ELISPOT activity [7]: HLARDFGYV

HLARPIYGL [CLP 2486]
Strong CTL Killing (listed as highly immunoreactive peptide) [4]: HLARPIYGL

ILIDSGADI [CLP 3005]
CTL activity in T cells from both donors [5]: induce | IFN-γ secretion in T cells from both donors [2]: induce

ILSVVAKLL [CLP 3011]
CTL activity in T cells from both donors [5]: induce | IFN-γ secretion in T cells from both donors [2]: induce

KAANVTLLT [CLP 3378]
Peptides eliciting CTL activity (peptide pulsed targets) [6]: KAANVTLLT | recognition of single peptides by CTL [6]: strongly recognized | Peptides eliciting strong IFN-γ ELISPOT activity [7]: KAANVTLLT

KLDKIGLNL [CLP 3372]
Peptides eliciting CTL activity (peptide pulsed targets) [6]: KLDKIGLNL | recognition of single peptides by CTL [6]: strongly recognized | Peptides eliciting strong IFN-γ ELISPOT activity [7]: KLDKIGLNL

KSQIEPAFH [CLP 3037]
BFA5 peptides eliciting high IFN-γ release (>200 spots/100,000 cells) ([2]; Donor AP31): KSQEPAFHI

KYKVTVAEV [CLP 3362]
Peptides eliciting CTL activity (peptide pulsed targets) [6]: KYKVTVAEV | recognition of single peptides by CTL [6]: Moderately recognized | Peptides eliciting strong IFN-γ ELISPOT activity [7]: KYKVTVAEV

LLGGVLRRA [CLP 3369]
Peptides eliciting CTL activity (peptide pulsed targets) [6]: LLGGVLRRA | recognition of single peptides by CTL [6]: Moderately recognized | Peptides eliciting strong IFN-γ ELISPOT activity [7]: LLGGVLRRA

LMDMQTFKA [CLP 2983]
CTL activity in T cells from both donors [5]: induce | IFN-γ secretion in T cells from both donors [2]: induce

LNASLLGGV [CLP 3366]
Peptides eliciting strong IFN-γ ELISPOT activity [7]: LNASLLGGV
